# Source: patent US11733243B2, “Use of acamprosate to modulate ERK1/2 activation in animal models for FXS and ASD and individuals diagnosed with FXS and ASD” (Indiana University Research and Technology Corporation, priority 2013, dated 2023)
# Several values for one entry are separate records, joined by “and”; a condition that tells them apart may be missing. Equal entries are not always repeated.
# Columns and labels:
# [1] = test system: glutamate or GABA receptors subtypes; conditions: clinically relevant concentrations; cited from earlier work
# NMDA glutamate receptor = conditions: animal studies; cited from earlier work
# [2] = test system: fmr1 (fragile X gene) Knock Out mice; experiment: training/test exploration and P.I. in WT and fmr1 KO mice; format: in vivo; set-up: training left / training right / training Total / test novel / test fam / test total: unit not given here
# [3] = test system: youths with autistic disorder; experiment: 12-week single-blind placebo lead-in trial of acamprosate in youths with autistic disorder: behavioral outcome measures; format: in vivo, human
# Protocol: One study was a 12-week single-blind, placebo-controlled trial of acamprosate in 12 youths with autistic disorder was conducted. The primary outcome measured was the Clinical Global Impression Improvement (CGI-I) scale with several additional behavioral secondary outcome measures employed. In this study, secreted amyloid precursor protein (sAPP) was measured pre- and post acamprosate treatment as blood biomarker assay Result: Twelve subjects (mean age=10.4 yrs.) entered the study and nine subjects completed a two week placebo lead-in and entered active treatment (mean final dose=1,073 mg/day). Six of nine (67%) subjects receiving acamprosate were judged treatment responders with a CGI-I score of 1 “very much improved” or 2 “much improved”. […] Among secondary outcome measures analyzed, significant acamprosate-associated improvement was noted on measures of social behavior and hyperactivity. Acamprosate use was also associated with reductions in sAPP levels.
# The first project enrolled 12 youth aged 5 to 17 years with fragile X syndrome and comorbid ASD in a 10-week open-label trial of acamprosate. The second project enrolled 12 youth aged 5 to 17 years diagnosed with idiopathic ASD in a 12-week single-blind placebo lead-in study of acamprosate. In both projects, concomitant dosing of psychotropic drugs remained stable throughout study. In each project, pre- and post-acamprosate treatment plasma levels of sAPP total and sAPPα were obtained. All APP assay samples were collected, chilled, and walked within 2 hours of blood draw to the lab for analysis. Plasma sAPP total and sAPPα were determined separately in serum using the ELISA kit obtained from Immuno Biological Laboratories (IBL, Gumma, Japan). The ELISA kit is validated to measure levels of sAPPα in human samples and able to detect as low as 0.09 ng/ml of sAPPα in a typical sample, with only 0.3% cross-reactivity to sAPP. Levels of sAPP total and sAPPα in plasma were reported in nanograms per milliliter (ng/mL). Statistical analyses of pre- and post-acamprosate sAPP total and sAPPα levels were conducted using paired T-tests. Finally an exploratory post-hoc analysis of potential correlation between percent change in sAPP total or sAPPα and percent change in scores on the Aberrant Behavior Checklist Social Withdrawal/Lethargy subscale (ABC-SW) was conducted. The ABC-SW measures social impairment which is a core symptom domain of ASD. Post-hoc analysis was done with Spearman correlation calculations. All data was analyzed in IBM SPSS Version 20.
# A 12-week single-blind, placebo-controlled trial of the effect of acamprosate in the treatment of 12 youths with autistic disorder aged 5 to 17 years was carried out. In order to pilot test use of acamprosate in youth with autism targeting core social impairment, was conducted. All subjects and their family members were blinded to treatment status. All subjects participated in a 2 week placebo-lead-in phase prior to 10 weeks of treatment with acamprosate. For this project, enteric coated commercially available 333 mg acamprosate pills were over-encapsulated and identical matching placebo manufactured for the project. Placebo-responders, defined by a Clinical Global Impressions Improvement scale (CGI-I) score of 1 “very much improved” or 2 “much improved” (ratings anchored to core social deficits) at week 2 were asked to exit the study. During active treatment with acamprosate, dosing was increased in 333 mg increments per week over the first six weeks of active treatment to a maximum dose of 1,332 mg/day (weight<5 60 kg) or 1,998 mg/day (weight>60 kg). During the final four weeks of active drug treatment, subjects were maintained on a stable highest tolerated (optimal) dose. The primary outcome measure was the clinician-rated CGI-I anchored to symptoms of social impairment. […]
# ERK = experiment: striatum pERK/ERK in WT and fmr1 KO mice treated with acamprosate; format: in vivo; set-up: ERK / Total: unit not given here
# Description: FIG. 4. Bar graph of pERK activity measured in WT and fmr1 KO mice treated with acamprosate
# Referring now to FIG. 4. A summary of data collected using mouse models for ASD to measure the effect of acamprosate on the levels of ERK activity in wild-type and fmr1 (fragile X gene) Knock Out mice.
# [4] = test system: leptin, beta endorphin, cortisol; conditions: humans with alcohol dependence; cited from earlier work
# [5] = STRIATUM, KO Acam, individual mice, listed as Acam
smiles,measurement,setting,value
"CC(=O)NCCCS(=O)(=O)O [Acamprosate, 3-Acetamidopropane-1-sulfonic acid]",direct binding to glutamate or GABA receptors subtypes,[1],no direct binding
same,action at the NMDA glutamate receptor,NMDA glutamate receptor,bind and act as an antagonist at the NMDA glutamate receptor
same,training P.I. average (mean),"[2]; KO Acam group, KO Sal 0.022521, WT Sal 0.193298",0.06358
same,test P.I. average (mean),"[2]; KO Acam group, KO Sal 0.134837, WT Sal 0.167142",0.2684
same,test P.I.,"[2]; KO Acam, individual mice",0.3192 and 0.2294 and 0.5255 and 0.2717 and 0.3025 and −0.1161 and 0.3463
same,test fam,"[2]; KO Acam, individual mice",24.3 and 40.3 and 28.38 and 28.7 and 32.28 and 47.59 and 30.2
same,test novel,"[2]; KO Acam, individual mice",47.09 and 64.3 and 91.23 and 50.11 and 60.28 and 37.69 and 62.2
same,test total,"[2]; KO Acam, individual mice",71.39 and 104.6 and 119.61 and 78.81 and 92.56 and 85.28 and 92.4
same,training P.I.,"[2]; KO Acam, individual mice",0.1811 and 0.1143 and 0.08976 and −0.105 and 0.1648 and −0.1088 and 0.1088
same,training Total,"[2]; KO Acam, individual mice",89.27 and 135.74 and 82.44 and 97.27 and 78.95 and 159.13 (2×)
same,training left,"[2]; KO Acam, individual mice",52.72 and 75.63 and 44.92 and 43.53 and 45.98 and 70.91 and 88.22
same,training right,"[2]; KO Acam, individual mice",36.55 and 60.11 and 37.52 and 53.74 and 32.97 and 88.22 and 70.91
same,treatment responders (CGI-I score of 1 or 2),"[3]; idiopathic ASD, nine subjects receiving acamprosate, mean final dose 1,073 mg/day",67%
same,mean CGI-I at last visit,"[3]; idiopathic ASD, nine subjects, last observation carried forward",2
same,CGI-S at endpoint,"[3]; idiopathic ASD, baseline 4.22+/-0.4, p=0.013",3.7+/−0.5
same,ABC Lethargy/Social Withdrawal subscale (ABC-SW) at endpoint,"[3]; idiopathic ASD, baseline 14.1+/-8.5, p=0.019",10.0+/−8.4
same,ABC Hyperactivity subscale at endpoint,"[3]; idiopathic ASD, baseline 25.4+/-12.6, p=0.005",16.6+/−12.4
same,ADHD-RS at endpoint,"[3]; idiopathic ASD, baseline 29.5+/-10.4, p=0.002",20.75+/−9.7
same,SRS total raw score at endpoint,"[3]; idiopathic ASD, baseline 107+/-28, p=0.002",91.4+/−30
same,youth judged responders to acamprosate (of those treated),[3]; youth with idiopathic ASD,6 of 9
same,A = ERK/Total,ERK; [5],1.31 and 1.57 and 2.78 and 2.43 and 2.19 and 2.25 and 1.71
same,ERK,ERK; [5],24161 and 32570 and 26811 and 27464 and 25163 and 21441 and 25808
same,Total,ERK; [5],18506 and 20784 and 9659 and 11290 and 11468 and 9535 and 15062
same,pERK,ERK; [5],26311 and 37905 and 34961 and 25699 and 25451 and 19381 and 25020
same,pERK/A,ERK; [5],20152.78 and 24188.44 and 12595.14 and 10564.44 and 11599.26 and 8618.90 and 14602.11
same,pERK/A,"ERK; STRIATUM, KO Acam, individual mice, listed as acamp",20152.78 and 24188.44 and 12595.14 and 10564.44 and 11599.26 and 8618.90 and 14602.11
same,pERK (group mean of pERK/A),"ERK; STRIATUM, KO acamp, WT sal 14455.22, KO sal 21048.75, T Test 0.96 vs WT, 0.20 vs KO sal",14617.30
same,effect on ERK activation in fmr1 knockout animals,ERK; fmr1 knockout animals,restores activated ERK to wild-type levels
same,hormone levels,[4],"lowers levels of several hormones: leptin, beta endorphin, cortisol"
